Test results: patent US8852928B2, “LexA-based chemical-inducible gene expression system for use in transgenic animals” (Temasek Life Sciences Laboratory Limited, priority 2007, dated 2014)
Entries after “also recorded” stand apart in the source; their conditions may differ.

Legend:
Assay type in all cases: in vivo, zebrafish
LexPR transactivator [1] = molecular target: T1, LexPR transactivator (Homo sapiens, UniProt P06401); assay: Time required to switch off EGFP reporter expression after mifepristone withdrawal; parameters: key to Reporter expression, RU486 incubation / Reporter expression after RU486 withdrawal / Reporter expression, continuous induction (time of RU486 incubation): +: Fluorescence signal is similar to the control.; ±: Fluorescence signal is obviously weaker that in control.; −: No EGFP fluorescence (except autofluorescence)observed using the fluorescent stereomicroscope
T1 construct: expressed in transfected cells; host or cells: germline-transgenic zebrafish (Danio rerio) carrying the Ds transposon driver cassette pDs(krt8:LPR-LOP:G4) or derivatives
T1 sequence (P06401 640-914): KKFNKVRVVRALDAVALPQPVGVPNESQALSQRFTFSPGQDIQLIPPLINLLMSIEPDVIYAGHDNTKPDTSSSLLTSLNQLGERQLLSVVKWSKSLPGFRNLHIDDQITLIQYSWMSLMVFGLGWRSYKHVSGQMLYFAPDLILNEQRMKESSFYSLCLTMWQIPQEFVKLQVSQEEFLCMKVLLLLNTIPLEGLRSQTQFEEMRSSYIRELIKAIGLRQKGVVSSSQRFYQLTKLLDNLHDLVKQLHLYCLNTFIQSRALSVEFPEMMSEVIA
Description: To avoid confusion, the corresponding developmental times are indicated. A Nikon SMZ1600 fluorescent stereomicroscope was used for rough estimation of the EGFP fluorescence.

LexPR transactivator [2] = molecular target: T1, LexPR transactivator; assay: Rate of transcription induction, whole mount in situ hybridization for EGFP transcript; conditions: 1 μM
Procedure: RNA in situ hybridization: Whole mount in situ hybridization using antisense RNA probes for full length LexPR transactivator and EGFP labeled with digoxigenin (Roche, USA) was carried out as previously described (Oxtoby and Jowett, 1993). After in situ hybridization stained embryos were mounted in PBS-glycerol and viewed using Nikon SMZ1600 stereomicroscope. Images were taken with Nikon DXM1200F digital camera with the Nikon ACT-1 software and processed using Adobe Photoshop 7.0.1 software.
To accurately estimate the rate of induction, it is more appropriate to measure the transcript rather than the protein product, especially if the gene of interest contains sequences for RNAi, microRNA or other non-coding RNAs.

LexPR transactivator [3] = molecular target: T1, LexPR transactivator; assay: RT-PCR detection of EGFP transcript after mifepristone withdrawal; conditions: 5 days after withdrawal; 12 hours induction with 1 μM
LexPR transactivator [4] = molecular target: T1, LexPR transactivator; assay: Mifepristone-induced EGFP reporter fluorescence in LexPR driver-reporter transgenic fish
Description: Generating transgenic fish using Ac/Ds transposon system: Transgenic fish carrying insertions of the driver and effector constructs containing Ds cis-required sequences (as described herein) were generated as previously described (Emelyanov et al., 2006). 5-10 pg of plasmid DNA was co-injected into zebrafish embryos (yolk center) with 25-50 pg of in vitro synthesized transposase mRNA at the 1-2-cell stage. […] Only the lines that segregated as a single locus (produced 1:1 ratio when outcrossed to nontransgenic fish) were selected.

LexPR transactivator [5] = molecular target: T1, LexPR transactivator; assay: Trans-activation of mCherry effector in effector and double transgenic fish; conditions: 1 μM
Procedure: Two independent driver lines with different LexPR transactivator expression patterns (shown on FIGS. 4A, 4D) were crossed with two independent transgenic effector lines, which carried mCherry gene under control of the LexOP. […] Images were captured at 96 hours post fertilization.
This effector cassette harbors a gene for red fluorescent protein “mCherry” under the control of the LexOP sequence (Example 3).

In the case of `CC#C[C@]1(O)CC[C@H]2[C@@H]3CCC4=CC(=O)CCC4=C3[C@@H](c3ccc(N(C)C)cc3)C[C@@]21C` [mifepristone], the “Reporter expression after RU486 withdrawal” value (LexPR transactivator [1]; 100 nM, 1 hour RU486 incubation, 72 h after withdrawal, 109hpf) is reported as “−”, the “Reporter expression after RU486 withdrawal” value (LexPR transactivator [1]; 100 nM, 1 hour RU486 incubation, 96 h after withdrawal, 133hpf) is reported as “−” and the “Reporter expression after RU486 withdrawal” value (LexPR transactivator [1]; 100 nM, 1 hour RU486 incubation, 120 h after withdrawal, 157hpf) is reported as “−”. For the same molecule, the “Reporter expression after RU486 withdrawal” value (LexPR transactivator [1]; 100 nM, 1 hour RU486 incubation, 144 h after withdrawal, 181hpf) was “−”, the “Minimal time after RU486 withdrawal to turn off the reporter expression” value (“Minimal time after RU486 withdrawal” below) (LexPR transactivator [1]; 100 nM, 1 hour induction) was 2 days and the “Reporter expression, RU486 incubation” value (LexPR transactivator [1]; 100 nM, 12 hours RU486 incubation - withdrawal, at 12 h incubation, 48hpf) was “+”. For the same molecule, the “Reporter expression after RU486 withdrawal” value (LexPR transactivator [1]; 100 nM, 12 hours RU486 incubation, 12 h after withdrawal, 60hpf) was “+”, the “Reporter expression after RU486 withdrawal” value (LexPR transactivator [1]; 100 nM, 12 hours RU486 incubation, 24 h after withdrawal, 72hpf) was “±” and the “Reporter expression after RU486 withdrawal” value (LexPR transactivator [1]; 100 nM, 12 hours RU486 incubation, 48 h after withdrawal, 96hpf) was “±”. The “Reporter expression after RU486 withdrawal” value (LexPR transactivator [1]; 100 nM, 12 hours RU486 incubation, 72 h after withdrawal, 120hpf) was “−”, the “Reporter expression after RU486 withdrawal” value (LexPR transactivator [1]; 100 nM, 12 hours RU486 incubation, 96 h after withdrawal, 144hpf) was “−” and the “Reporter expression after RU486 withdrawal” value (LexPR transactivator [1]; 100 nM, 12 hours RU486 incubation, 120 h after withdrawal, 168hpf) was “−”. For the same molecule, the “Reporter expression after RU486 withdrawal” value (LexPR transactivator [1]; 100 nM, 12 hours RU486 incubation, 144 h after withdrawal, 192hpf) was “−”, the “Minimal time after RU486 withdrawal” value (LexPR transactivator [1]; 100 nM, 12 hours induction) was 3 days and the “Reporter expression, continuous induction (time of RU486 incubation)” value (LexPR transactivator [1]; 100 nM, 24-156 h incubation, 60-192 hpf) was “+”. For the same molecule, the “Reporter expression, continuous induction (time of RU486 incubation)” value (LexPR transactivator [1]; 100 nM, 1 h incubation) was “−”, the “Reporter expression, continuous induction (time of RU486 incubation)” value (LexPR transactivator [1]; 100 nM, 12 h incubation) was “+” and the “Reporter expression, continuous induction (time of RU486 incubation)” value (LexPR transactivator [1]; 100 nM, 13 h incubation, 49hpf) was “+”. For the same molecule, the “Reporter expression, continuous induction (time of RU486 incubation)” value (LexPR transactivator [1]; 100 nM, 24 h incubation, 60hpf) was “+”, the “Reporter expression, RU486 incubation” value (LexPR transactivator [1]; 1 μM, 1 hour RU486 incubation - withdrawal, at 1 h incubation, 37hpf) was “−” and the “Reporter expression after RU486 withdrawal” value (LexPR transactivator [1]; 1 μM, 1 hour RU486 incubation, 12 h after withdrawal, 49hpf) was “+”. The “Reporter expression after RU486 withdrawal” value (LexPR transactivator [1]; 1 μM, 1 hour RU486 incubation, 24 h after withdrawal, 61hpf) was “+”, the “Reporter expression after RU486 withdrawal” value (LexPR transactivator [1]; 1 μM, 1 hour RU486 incubation, 48 h after withdrawal, 85hpf) was “+” and the “Reporter expression after RU486 withdrawal” value (LexPR transactivator [1]; 1 μM, 1 hour RU486 incubation, 72 h after withdrawal, 109hpf) was “±”. The “Reporter expression after RU486 withdrawal” value (LexPR transactivator [1]; 1 μM, 1 hour RU486 incubation, 96 h after withdrawal, 133hpf) was “±”, the “Reporter expression after RU486 withdrawal” value (LexPR transactivator [1]; 1 μM, 1 hour RU486 incubation, 120 h after withdrawal, 157hpf) was “−” and the “Reporter expression after RU486 withdrawal” value (LexPR transactivator [1]; 1 μM, 1 hour RU486 incubation, 144 h after withdrawal, 181hpf) was “−”. The “Minimal time after RU486 withdrawal” value (LexPR transactivator [1]; 1 μM, 1 hour induction) was 5 days, the “Reporter expression, RU486 incubation” value (LexPR transactivator [1]; 1 μM, 12 hours RU486 incubation - withdrawal, at 12 h incubation, 48hpf) was “+” and the “Reporter expression after RU486 withdrawal” value (LexPR transactivator [1]; 1 μM, 12 hours RU486 incubation, 12 h after withdrawal, 60hpf) was “+”. The “Reporter expression after RU486 withdrawal” value (LexPR transactivator [1]; 1 μM, 12 hours RU486 incubation, 24 h after withdrawal, 72hpf) was “+”, the “Reporter expression after RU486 withdrawal” value (LexPR transactivator [1]; 1 μM, 12 hours RU486 incubation, 48 h after withdrawal, 96hpf) was “+” and the “Reporter expression after RU486 withdrawal” value (LexPR transactivator [1]; 1 μM, 12 hours RU486 incubation, 72 h after withdrawal, 120hpf) was “±”. For the same molecule, the “Reporter expression after RU486 withdrawal” value (LexPR transactivator [1]; 1 μM, 12 hours RU486 incubation, 96 h after withdrawal, 144hpf) was “±”, the “Reporter expression after RU486 withdrawal” value (LexPR transactivator [1]; 1 μM, 12 hours RU486 incubation, 120 h after withdrawal, 168hpf) was “±” and the “Reporter expression after RU486 withdrawal” value (LexPR transactivator [1]; 1 μM, 12 hours RU486 incubation, 144 h after withdrawal, 192hpf) was “−”. The “Minimal time after RU486 withdrawal” value (LexPR transactivator [1]; 1 μM, 12 hours induction) was 6 days, the “Reporter expression, continuous induction (time of RU486 incubation)” value (LexPR transactivator [1]; 1 μM, 24-156 h incubation, 60-192 hpf) was “+” and the “Reporter expression, continuous induction (time of RU486 incubation)” value (LexPR transactivator [1]; 1 μM, 1 h incubation) was “−”. The “Reporter expression, continuous induction (time of RU486 incubation)” value (LexPR transactivator [1]; 1 μM, 12 h incubation) was “+”, the “Reporter expression, continuous induction (time of RU486 incubation)” value (LexPR transactivator [1]; 1 μM, 13 h incubation, 49hpf) was “+” and the “Reporter expression, continuous induction (time of RU486 incubation)” value (LexPR transactivator [1]; 1 μM, 24 h incubation, 60hpf) was “+”. For the same molecule, the “Duration of EGFP fluorescence in mifepristone-free water” value (LexPR transactivator [1]; following 12 hours treatment with 1 μM) was 5 days, the “Time of induction to maximum transcript level” value (LexPR transactivator [2]) was “approximately nine” and the “EGFP transcript by RT-PCR after withdrawal” value (LexPR transactivator [3]) was “can be detected”. The “Reporter expression at lowest inducible concentration” value (LexPR transactivator [4]; 1 nM) was “significantly weaker reporter expression”, the EGFP expression induced (LexPR transactivator [4]; 10 nM, after 24 hours of incubation) was “Strong EGFP expression” and the “Time until EGFP fluorescence was observed after adding mifepristone” value (LexPR transactivator [4]; 1 μM and 100 nM final concentration in growth water) was 6 to 9 h. The Lowest inducible concentration (LexPR transactivator [4]; EGFP reporter, growth water) was 1 nM, the “Concentration required for effective transcription induction” value (LexPR transactivator [4]; in the growth water) was 0.01 to 1 µM and the “Background mCherry fluorescence in effector lines (effector cassette only)” value (LexPR transactivator [5]) was “No background mCherry fluorescence was detected; also recorded: not detected”. The “Reporter expression in double transgenic embryos (driver and effector)” value (LexPR transactivator [5]) was “both reporters (EGFP/driver and mCherry/effector) were co-expressed in the same cells”.
